Here are results for two molecules from US10646442B2, “Liposome composition and method for producing same” (FUJIFILM Corporation, priority 2014, dated 2020).

pIC50: −log10 of the molar value. Structures can show the parent of a compound that is named as a salt.

As usually defined, the half-life is the time in which the quantity being followed falls by half.

For data set [1], the system named is Capan-1 (human pancreatic cancer cell line). Briefly: In vitro cancer cell growth inhibition. Type of data set: cell-based. As to conditions: Capan-1, cultured 144 hours, Luminescent Cell Viability Assay, read-out: IC50 (drug effect concentration that inhibits 50% of cancer cell growth). The protocol: 2×10^3 cells/[…]/well of Capan-1 (human pancreatic cancer cell line) were seeded onto a 96-well plate. Subsequently, a free drug (gemcitabine hydrochloride) solution, and a drug encapsulated in the liposome compositions of Example 4 and Comparative Examples 4 and 5 were added at each concentration, and cultured until after 144 hours. The cell viability was calculated from the amount of luminescence obtained by a Luminescent Cell Viability Assay after the completion of the culture. In addition, a drug effect concentration (IC50) that inhibits 50% of cancer cell growth was determined.

For data set [2] the following is noted: reference value for free drug in mice; not among the administered groups; cited from earlier work.
Data set [3] can be described thus: Retentivity in blood (free pemetrexed concentration in blood plasma). Type of data set: in vivo. As to conditions: mouse, intravenous, 6 mg/kg in terms of drug amount, tail vein injection, male C3H mice. The protocol: Further, the liposome composition of Example 10 at a dose of 6 mg/kg in terms of drug amount was administered via tail vein injection to 8-week old male C3H mice under the non-fasting conditions. Blood was collected at 15 minutes, 1 hour, 4 hours, and 24 hours after the administration was completed, and the free pemetrexed concentration in blood plasma was quantified to calculate a T1/2.

In the case of `Nc1ccn([C@@H]2O[C@H](CO)[C@@H](O)C2(F)F)c(=O)n1` [free drug, gemcitabine hydrochloride], in data set [1], the pIC50 was 8.15. Besides, the “T1/2 of free gemcitabine in mice” value in data set [2] is 0.7 h.

In data set [3], `Nc1nc2[nH]cc(CCc3ccc(C(=O)N[C@@H](CCC(=O)O)C(=O)O)cc3)c2c(=O)[nH]1` [drug aqueous solution, pemetrexed disodium heptahydrate] showed a half-life of 2 h.
